Marks after values point to notes of the source that are not given here.
Assay: Solubility of active agents in surfactants (saturation, HPLC)
Format: physicochemical
Conditions: 40° C., mean of three ± SD unless a (single) or b (duplicate); for Solubility Irinotecan HCl: irinotecan HCl in the surfactant; for Solubility Irinotecan base: irinotecan base in the surfactant; for Solubility Paclitaxel: paclitaxel in the surfactant
Experimental: In order for the surfactants to be useful as components of the delivery system, it is important to be able to dissolve biologically active agents in the surfactant or in the water. Table 3 illustrates that the surfactants are useful for dissolving three pharmaceutical compounds that may potentially be delivered using the invention. Solubility was determined by saturation of the surfactant with solid drug at 40° C. until saturation is achieved. Drug level was determined by reverse phase HPLC. Values given are the mean of three separate samples±standard deviation, unless denoted otherwise.

Structure (SMILES) | Solubility Irinotecan HCl | Solubility Irinotecan base | Solubility Paclitaxel
CC(C)CCCC(C)CCCC(C)CCCC(C)CCN(CCO)C(N)=O (centres unmarked) [1-(3,7,11,15-tetramethyl-hexadecyl)-1-(2-hydroxyethyl)urea] | 0.43 ± 0.20 mg/g | 0.35 ± 0.001 mg/g | 0.87 ± 0.18 mg/g
CC(C)CCCC(C)CCCC(C)CCCC(C)CCNC(=O)NCCO (centres unmarked) [1-(3,7,11,15-tetramethyl-hexadecyl)-3-(2-hydroxyethyl)urea] | 4.36 ± 0.30 mg/g | 0.94 ± 0.02 mg/g | 5.67 ± 1.64 mg/g
CC(C)CCCC(C)CCCC(C)CCCC(C)CCOC(=O)C(O)CO (centres unmarked) [2,3-Dihydroxypropionic acid 3,7,11,15-tetramethyl-hexadecyl ester] | 4.33 ± 0.37 mg/g | 64.54 ± 4.65 mg/g | 4.83 ± 0.83 mg/g
CC(C)CCCC(C)CCCC(C)CCOC(=O)C(O)CO (centres unmarked) [2,3-Dihydroxypropionic acid 3,7,11-trimethyl-dodecyl ester] | 4.58^a mg/g | 3.92^b mg/g | 7.25^b mg/g
CCCCCCCCC=CCCCCCCCCOC(=O)C(O)CO (centres unmarked) [2,3-Dihydroxypropionic acid octadec-9-enyl ester] | 9.69 ± 0.74 mg/g | 35.66 ± 1.26 mg/g | 8.43 ± 0.23 mg/g
CC(C)CCCC(C)CCCC(C)CCCC(C)CCNC(N)=O (centres unmarked) [3,7,11,15-Tetramethyl-hexadecyl urea] | 1.63 ± 0.64 mg/g | 0.44 ± 0.11 mg/g | 7.85 ± 1.93 mg/g
CC(C)CCCC(C)CCCC(C)CCCC(C)CC(=O)OCC(O)CO (centres unmarked) [3,7,11,15-tetramethyl-hexadecanoic acid 1-glycerol ester] |  | 6.22^a mg/g | 6.66^a mg/g
CC(C)CCCC(C)CCCC(C)CCNC(N)=O (centres unmarked) [3,7,11-Trimethyl-dodecyl urea] | 33.83 ± 5.98 mg/g | 3.76 ± 0.45 mg/g | 34.65 ± 2.34 mg/g

From patent US20070108405A1, “Compositions and methods for delivery of biologically active agents” (FH FAULDING & CO., LTD., priority 2003, published 2007)
